Laboratory results published in patent US20260250320A1, “LIPIDATED PEPTIDE INHIBITORS OF INTERLEUKIN-23 RECEPTOR” (Janssen Pharmaceutica NV, priority 2023, published 2026).
*1 amine or outer side, *2 acyl side, *3 side chain or, on linkers, in order; H or OH if unused. Where a SMILES comes first, the peptide text is derived from it. Bridges are numbered along the chain shown (N, C = ends). Side-chain parts run from the residue outwards. [ ]: non-standard residue; d: D form. The star is where a group is joined. PEG12 = NCCOCCOCCOCCOCCOCCOCCOCCOCCOCCOCCOCCOCCC(=O)O; CH2CH2OCH2CH2OCH2CH2NMe3+ = C[N+](C)(C)CCOCCOCC*; Trp(7-Me) = Cc1cccc2c(C[C@H](N)C(=O)O)c[nH]c12; C20 diacid = O=C(O)CCCCCCCCCCCCCCCCCCC(=O)*; C18 diacid = O=C(O)CCCCCCCCCCCCCCCCC(=O)*; γGlu = O=C(O)[C@H](CCC(=O)[*:2])N[*:1]; 2Nal = N[C@@H](Cc1ccc2ccccc2c1)C(=O)O; AEF = NCCOc1ccc(C[C@H](N)C(=O)O)cc1; PEG6 = NCCOCCOCCOCCOCCOCCOCCC(=O)O; 3Pal = N[C@@H](Cc1cccnc1)C(=O)O; Lys(Me) = CNCCCC[C@H](N)C(=O)O; Pen = CC(C)(S)[C@H](N)C(=O)O; Thp = NC1(C(=O)O)CCOCC1; Sar = CNCC(=O)O

Experiments:
IL-23R = target: T1, IL-23R (Homo sapiens, UniProt Q5VWK5); experiment: IL23R Reporter Assay; assay type: cell-based; settings: HEK293 cells containing IL-23R, IL-12Rβ1 and STAT-inducible firefly luciferase reporter; 10 ng/mL IL-23 (EC90); 5 h
T1 construct: HEK293 cells containing IL-23R, IL-12Rβ1 and a firefly luciferase reporter gene driven by a STAT-inducible promoter (Promega); host or cells: HEK293
T1 sequence (Q5VWK5 24-629): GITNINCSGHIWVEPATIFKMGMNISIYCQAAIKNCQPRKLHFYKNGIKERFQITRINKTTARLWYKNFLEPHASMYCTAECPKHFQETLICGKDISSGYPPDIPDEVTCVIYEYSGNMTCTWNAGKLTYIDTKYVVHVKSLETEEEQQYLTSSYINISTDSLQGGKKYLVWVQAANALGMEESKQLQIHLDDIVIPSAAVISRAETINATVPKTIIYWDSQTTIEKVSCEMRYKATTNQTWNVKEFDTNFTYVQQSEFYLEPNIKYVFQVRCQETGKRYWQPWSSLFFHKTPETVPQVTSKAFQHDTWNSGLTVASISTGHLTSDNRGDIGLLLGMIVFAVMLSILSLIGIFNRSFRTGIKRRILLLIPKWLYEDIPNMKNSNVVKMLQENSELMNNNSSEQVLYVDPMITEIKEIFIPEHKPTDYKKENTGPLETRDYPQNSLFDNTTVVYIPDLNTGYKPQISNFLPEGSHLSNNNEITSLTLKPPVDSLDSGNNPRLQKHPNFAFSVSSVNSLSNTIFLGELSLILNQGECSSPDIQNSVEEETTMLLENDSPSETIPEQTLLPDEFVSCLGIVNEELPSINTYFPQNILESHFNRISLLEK
Summary of the method: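 IC50 values were fitted with a 4-parameter Hill equation to luciferase signal, scaled between IL-23-only wells (0% inhibition) and 30 μM reference inhibitor (100%). The readout was a STAT-inducible reporter in IL-23R/IL-12Rβ1 HEK293 cells, stimulated with added 10 ng/mL IL-23 (EC90) for 5 h at 37° C and developed with BioGlo.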

[1] = tested on: IL-23-stimulated phosphorylated STAT3 in peripheral blood mononuclear cells (PBMCs); experiment: PBMC pSTAT3 Assay; assay type: cell-based; settings: PBMCs from healthy donors; 30 min preincubation with peptide; IL-23 5 ng/mL for 30 min; phospho-STAT3 by MSD
Experimental: Cryopreserved peripheral blood mononuclear cells (PBMCs) from healthy donors were thawed and washed twice in ImmunoCult-XF T cell expansion medium (XF-TCEM) supplemented with CTL anti-aggregate wash. The cells were counted, resuspended at 2-6×10^5 cells per mL XF-TCEM supplemented with penicillin/streptomycin and 100 ng/mL […] (BioLegend, 579404), and cultured in tissue culture flasks coated with anti-CD3 (eBioscience, 16-0037-85 or BD Pharmingen, 555329) at 37° C. in 5% CO2. On day 4 of culture, PBMCs were collected, washed twice in RPMI-1640 supplemented with 0.1% BSA (RPMI-BSA), and incubated in RPMI-BSA in upright tissue culture flasks for ~4 hours at 37° C. in 5% CO2. Following this 'starvation,' a total of 6×10^4 cells in 30 μL RPMI-BSA was transferred into each well of a 384-well plate pre-spotted with peptide or DMSO. The cells were incubated for 30 minutes prior to the addition of […] at a final concentration of 5 ng/mL. The cells were stimulated with cytokine for 30 minutes at 37° C. in 5% CO2, transferred onto ice for 10 minutes, and lysed. Cell lysates were stored at -80° C. until phosphorylated STAT3 was measured using the phospho-STAT panel kit (Meso Scale Discovery, […]). Results are provided below. • A: IC50<0.5 nM; • B: 0.5 nM≤IC50<5 nM; • C: 5 nM≤IC50; • ND: Not determined

| IC50 (IL-23R) [µM] | SMILES | IC50 [1] [µM] |
| --- | --- | --- |
| < 0.05 | CC(=O)NCCCC[C@@H]1NC(=O)[C@H](Cc2c[nH]c3c(C)cccc23)NC(=O)[C@H]([C@@H](C)O)NC(=O)[C@H](CC(N)=O)NC(=O)[C@@H](NC(=O)[C@@H](CCCCNC(=O)CCOCCOCCOCCOCCOCCOCCOCCOCCOCCOCCOCCOCCNC(=O)CC[C@H](NC(=O)CCCCCCCCCCCCCCCCC(=O)O)C(=O)O)NC(C)=O)C(C)(C)SSC(C)(C)[C@@H](C(=O)N[C@@H](Cc2ccc(OCCN)cc2)C(=O)N[C@@H](Cc2ccc3ccccc3c2)C(=O)NC2(C(=O)N[C@@H](CCC(=O)O)C(=O)N[C@@H](CC(N)=O)C(=O)N[C@@H](Cc3cccnc3)C(=O)N(C)CC(N)=O)CCOCC2)NC1=O [compound 117, MeCO-k(PEG12gEC18OH)-Pen(3)-N-T-7MeW-K(Ac)-Pen(3)-AEF-2Nal-THP-E-N-3Pya-Sar-CONH2] (Ac-[dK]([PEG12-γGlu-C18 diacid])[Pen]NT[Trp(7-Me)]K(Ac)[Pen][AEF][2Nal][Thp]EN[3Pal][Sar]-NH2; disulfide 2-7) | < 0.0005 |
| < 0.05 | CC(=O)N(C)CCCC[C@@H]1NC(=O)[C@H](Cc2c[nH]c3c(C)cccc23)NC(=O)[C@H]([C@@H](C)O)NC(=O)[C@H](CC(=O)N(C)C)NC(=O)[C@@H](NC(=O)CCOCCOCCOCCOCCOCCOCCNC(=O)CC[C@H](NC(=O)CCCCCCCCCCCCCCCCC(=O)O)C(=O)O)C(C)(C)SSC(C)(C)[C@@H](C(=O)N[C@@H](Cc2ccc(OCCOCCOCC[N+](C)(C)C)cc2)C(=O)N[C@@H](Cc2ccc3ccccc3c2)C(=O)NC2(C(=O)N[C@@H](CCCCN(C)C(C)=O)C(=O)N[C@@H](CC(N)=O)C(=O)N[C@@H](Cc3cccnc3)C(=O)N(C)CC(=O)N(C)C)CCOCC2)NC1=O [compound 109, HOC18gEPEG6CO-Pen(3)-N(N(Me)2)-T-7MeW-K(NMeAc)-Pen(3)-APEG3F-2Nal-THP-K(NMeAc)-N-3Pya-Sar-CON(Me)2] ({C18 diacid-γGlu-PEG6}-[Pen]D(NMe2)T[Trp(7-Me)][Lys(Me)](Ac)[Pen]Y(CH2CH2OCH2CH2OCH2CH2NMe3+)[2Nal][Thp][Lys(Me)](Ac)N[3Pal][Sar]-NMe2; disulfide 1-6) | < 0.0005 |
| < 0.05 | CC(=O)NCCCC[C@@H]1NC(=O)[C@H](Cc2c[nH]c3c(C)cccc23)NC(=O)[C@H]([C@@H](C)O)NC(=O)[C@H](CC(N)=O)NC(=O)[C@@H](NC(=O)[C@@H](CCCNC(=N)N)NC(C)=O)C(C)(C)SSC(C)(C)[C@@H](C(=O)N[C@@H](Cc2ccc(OCCN)cc2)C(=O)N[C@@H](Cc2ccc3ccccc3c2)C(=O)NC2(C(=O)N[C@@H](CCC(=O)O)C(=O)N[C@@H](CC(N)=O)C(=O)N[C@@H](Cc3cccnc3)C(=O)N(C)CC(=O)N[C@@H](CCCCNC(=O)CCOCCOCCOCCOCCOCCOCCOCCOCCOCCOCCOCCOCCNC(=O)CC[C@H](NC(=O)CCCCCCCCCCCCCCCCCCC(=O)O)C(=O)O)C(N)=O)CCOCC2)NC1=O [compound 134, MeCO-r-Pen(3)-N-T-7MeW-K(Ac)-Pen(3)-AEF-2Nal-THP-E-N-3Pya-Sar-K(PEG12gEC20OH)-CONH2] (Ac-[dR][Pen]NT[Trp(7-Me)]K(Ac)[Pen][AEF][2Nal][Thp]EN[3Pal][Sar]K([PEG12-γGlu-C20 diacid])-NH2; disulfide 2-7) | < 0.0005 |
